Experimental data published in patent US8815935B2, “Inhibitors of protein prenyltransferases” (The Regents of the University of California, priority 2008, dated 2014).
“Also recorded” adds a separate entry of the source.

Legend:
Jurkat cells = experiment: Jurkat cell growth inhibition; type: cell-based, human; details: Homo sapiens, Jurkat, 72 h; 3 days, CCK-8, vs DMSO; read-out: IC50, Jurkat (Blood)
Method in brief: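 Jurkat T-cell leukemia cells were exposed to compound for 72 h, with cell number counted and viability read by CCK-8 relative to the DMSO control. GI50 is the compound concentration giving 50% growth inhibition.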

Aspc-1 = Aspc-1 cell growth inhibition; type: cell-based, human; details: Homo sapiens, ASPC1, 144 h; 6 days, CCK-8, vs DMSO; read-out: IC50, AsPc-1 (Pancreas)
Method: (§1) In FIG. 9-24 in vitro IC50 values for the GGTase I activity are reported. In Tables 7-15 in cell GI50 values for the growth inhibition of a variety of cancer cell lines (e.g., Jurkat, K562, MDA-MB-231, BT474, MCF7, MiaPaCa2, Aspc-1, Panc-1, Capan-2, CFpac-1, and MCF10a) are reported.
(§2) Cell viability was determined by Cell Counting Kit-8 (CCK-8, Dojindo, Kumamoto, Japan) as described previously (31). Cell viability was calculated relative to the DMSO control. Cell cycle profile was analyzed by flow cytometry as described previously (32).

Panc-1 = Panc-1 cell growth inhibition; type: cell-based, human; details: Homo sapiens, PANC-1, 72 h; 3 days, CCK-8, vs DMSO; read-out: IC50, PANC-1 (Pancreas)
Method: as §1
Panc-1 cells (Pancreatic cancer cell line) and Jurkat cells (T-cell leukemia) were treated with 12.5 μM of P5-H6 or 12.5 μM of mP5-H6a for 72 hours. The cell number was counted as described in Example 5.
as §2

Capan-2 = Capan-2 cell growth inhibition; type: cell-based, human; details: Homo sapiens, Capan-2, 72 h; 3 days, CCK-8, vs DMSO; read-out: IC50, Capan-2 (Pancreas)
Method: as §1, §2

SE-Mk2 = SE-Mk2 cell growth inhibition; type: cell-based; details: Homo sapiens, SEMK2, 144 h; 6 days, CCK-8, vs DMSO; read-out: IC50, SE-Mk2 (Blood)
Method: as §2

p21CIP1/WAF1 promoter = experiment: p21 promoter luciferase reporter assay in NIH3T3 cells; type: cell-based; details: NIH3T3, 48 hours, dose dependent
Method: For the p21^WAF1/CIP1 promoter luciferase assay, NIH3T3 cells were transfected with p21^WAF1/CIP1 promoter-Luc or vector plasmids (33) (both plasmids are provided by Dr. Genhong Cheng). Cells were treated with GGTI compounds. Promega luciferase assay kit was used according to the manufacturer's protocol.
Another mechanism through which GGTI can effect cell cycle progression is to inhibit RhoA which negatively regulates expression of a Cdk inhibitor p21^CIP1/WAF1. To investigate whether the GGTI compounds described herein can induce p21^CIP1/WAF1 expression, luciferase transcriptional activation from the p21^CIP1/WAF1 promoter (33) was measured. Transient expression systems with NIH3T3 cells were used to examine the ability of P61-A6 to induce p21^CIP1/WAF1-luciferase expression. P61-A6 induced significant (4-fold) inductions of luciferase activity versus DMSO in a dose dependence manner (FIG. 37C).

[1] = test system: Rap1 geranylgeranylation in NIH3T3 cells; experiment: Unprenylated Rap1 immunoblot in NIH3T3 cells; type: cell-based; details: 48 hours
Method: The inhibition of GGTase-I catalyzed protein geranylgeranylation was assessed by examining the accumulation of unprenylated Rap1. To measure the level of unprenylated Rap1, cells were cultured in DMEM plus 10% (v/v) FBS overnight, and then DMSO or appropriate inhibitors were added. Incubation was continued for 48 hours. The cells were harvested and lysed in lysis buffer (20 mM Tris-HCl, pH 7.5, 150 mM NaCl, 1 mM EDTA, 1% NP-40 and 1× Protease Inhibitor Cocktail). Whole cell lysates of NIH3T3 cells were electrophoresed on a 12% SDS-PAGE, transferred to nitrocellulose membranes and immunoblotted with the antibody against unprenylated form of Rap1 (Santa Cruz Biotechnology catalog number sc-1482, goat), total-Rap1 (Santa Cruz: sc-65) or actin (Sigma: A4700). Actin was used as a loading control.

`Cc1ccccc1S(=O)(=O)N1C(c2ccc(Cl)cc2)C(C(=O)NC(Cc2ccccc2)C(N)=O)=CC1C(C)(C)C` (centres unmarked) [P61-A6] was tested, and the IC50 (Jurkat cells) was 2.9 µM, the IC50 (Aspc-1) was 11.7 µM and the IC50 (Panc-1) was 5.2 µM. The IC50 (Capan-2) was 11.5 µM, the IC50 (SE-Mk2) was 6.4 µM and the “induction of p21CIP1/WAF1-luciferase activity versus DMSO” value (p21CIP1/WAF1 promoter) was 4 fold. The “appearance of the unprenylated (unprocessed) Rap1 band” value [1] was “in a dose dependent manner; also recorded: inhibits Rap1 geranylgeranylation” and the “appearance of the unprenylated Rap1 band at 2.5 μM” value ([1]; 2.5 μM) was “observed”.
